Reference: ChEMBL document CHEMBL3046966, “Structure and Fungicidal Activities of 2-Methoxyimino-N-methyl-2-[2-(substituted pyridyloxymethyl)phenyl]acetamide Derivatives” (1998)

Legend:
Format in all cases: functional
Pyricularia oryzae [1] = assay: Fungicidal activity against Magnaporthe oryzae assessed as rice blast disease control at 125 ppm foliar application for 24 hr before inoculation by preventive manner
Botrytis cinerea [2] = assay: Fungicidal activity against Botryotinia fuckeliana assessed as cucumber gray mold disease control at 31.3 ppm foliar application 24 hr before inoculation by preventive manner
[3] = system: Pseudoperonospora cubensis; assay: Fungicidal activity against Pseudoperonospora cubensis assessed as cucumber downy mildew disease control at 125 ppm foliar application 24 hr after inoculation by preventive manner
Podosphaera fuliginea [4] = assay: Fungicidal activity against Podosphaera fuligineas assessed as cucumber […] mildew disease control at 2 ppm foliar application 24 hr before inoculation by preventive manner
[5] = system: Blumeria graminis f. sp. tritici; assay: Fungicidal activity against Blumeria graminis f. sp. tritici assessed as wheat powdery mildew disease control at 31.3 ppm foliar application for 24 hr before inoculation by preventive manner
Podosphaera fuliginea [6] = assay: Fungicidal activity against Podosphaera fuligineas assessed as cucumber […] mildew disease control at 2 ppm foliar application 24 hr after inoculation by curative manner
[7] = system: Blumeria graminis f. sp. tritici; assay: Fungicidal activity against Blumeria graminis f. sp. tritici assessed as wheat powdery mildew disease control at 125 ppm foliar application for 24 hr after inoculation by curative manner
Botrytis cinerea [8] = assay: Fungicidal activity against Botryotinia fuckeliana assessed as cucumber gray mold disease control at 125 ppm foliar application 24 hr after inoculation by curative manner
[9] = system: Pseudoperonospora cubensis; assay: Fungicidal activity against Pseudoperonospora cubensis assessed as cucumber downy mildew disease control at 7.8 ppm foliar application 24 hr after inoculation by curative manner
Pyricularia oryzae [10] = assay: Fungicidal activity against Magnaporthe oryzae assessed as rice blast disease control at 125 ppm foliar application for 24 hr after inoculation by curative manner
Botrytis cinerea [11] = assay: Fungicidal activity against Botryotinia fuckeliana assessed as cucumber gray mold disease control at 125 ppm foliar application 24 hr before inoculation by preventive manner
Podosphaera fuliginea [12] = assay: Fungicidal activity against Podosphaera fuligineas assessed as cucumber […] mildew disease control at 7.8 ppm foliar application 24 hr after inoculation by curative manner
Podosphaera fuliginea [13] = assay: Fungicidal activity against Podosphaera fuligineas assessed as cucumber […] mildew disease control at 7.8 ppm foliar application 24 hr before inoculation by preventive manner
[14] = system: Blumeria graminis f. sp. tritici; assay: Fungicidal activity against Blumeria graminis f. sp. tritici assessed as wheat powdery mildew disease control at 31.3 ppm foliar application for 24 hr after inoculation by curative manner
[15] = system: Blumeria graminis f. sp. tritici; assay: Fungicidal activity against Blumeria graminis f. sp. tritici assessed as wheat powdery mildew disease control at 7.8 ppm foliar application for 24 hr before inoculation by preventive manner
Pyricularia oryzae [16] = assay: Fungicidal activity against Magnaporthe oryzae assessed as rice blast disease control at 31.3 ppm foliar application for 24 hr before inoculation by preventive manner
Pyricularia oryzae [17] = assay: Fungicidal activity against Magnaporthe oryzae assessed as rice blast disease control at 31.3 ppm foliar application for 24 hr after inoculation by curative manner
[18] = system: Pseudoperonospora cubensis; assay: Fungicidal activity against Pseudoperonospora cubensis assessed as cucumber downy mildew disease control at 2 ppm foliar application 24 hr after inoculation by curative manner
[19] = system: Blumeria graminis f. sp. tritici; assay: Fungicidal activity against Blumeria graminis f. sp. tritici assessed as wheat powdery mildew disease control at 125 ppm foliar application for 24 hr before inoculation by preventive manner
[20] = system: Pseudoperonospora cubensis; assay: Fungicidal activity against Pseudoperonospora cubensis assessed as cucumber downy mildew disease control at 31.3 ppm foliar application 24 hr after inoculation by preventive manner
Botrytis cinerea [21] = assay: Fungicidal activity against Botryotinia fuckeliana assessed as cucumber gray mold disease control at 7.8 ppm foliar application 24 hr before inoculation by preventive manner
[22] = system: Blumeria graminis f. sp. tritici; assay: Fungicidal activity against Blumeria graminis f. sp. tritici assessed as wheat powdery mildew disease control at 7.8 ppm foliar application for 24 hr after inoculation by curative manner
[23] = system: Pseudoperonospora cubensis; assay: Fungicidal activity against Pseudoperonospora cubensis assessed as cucumber downy mildew disease control at 125 ppm foliar application 24 hr after inoculation by curative manner
[24] = system: Blumeria graminis f. sp. tritici; assay: Fungicidal activity against Blumeria graminis f. sp. tritici assessed as wheat powdery mildew disease control at 2 ppm foliar application for 24 hr before inoculation by preventive manner
Podosphaera fuliginea [25] = assay: Fungicidal activity against Podosphaera fuligineas assessed as cucumber […] mildew disease control at 125 ppm foliar application 24 hr before inoculation by preventive manner
Podosphaera fuliginea [26] = assay: Fungicidal activity against Podosphaera fuligineas assessed as cucumber […] mildew disease control at 125 ppm foliar application 24 hr after inoculation by curative manner
Botrytis cinerea [27] = assay: Fungicidal activity against Botryotinia fuckeliana assessed as cucumber gray mold disease control at 7.8 ppm foliar application 24 hr after inoculation by curative manner
Podosphaera fuliginea [28] = assay: Fungicidal activity against Podosphaera fuligineas assessed as cucumber […] mildew disease control at 31.3 ppm foliar application 24 hr after inoculation by curative manner
Podosphaera fuliginea [29] = assay: Fungicidal activity against Podosphaera fuligineas assessed as cucumber […] mildew disease control at 31.3 ppm foliar application 24 hr before inoculation by preventive manner
Pyricularia oryzae [30] = assay: Fungicidal activity against Magnaporthe oryzae assessed as rice blast disease control at 7.8 ppm foliar application for 24 hr after inoculation by curative manner
Botrytis cinerea [31] = assay: Fungicidal activity against Botryotinia fuckeliana assessed as cucumber gray mold disease control at 2 ppm foliar application 24 hr after inoculation by curative manner

SMILES | Activity (Pyricularia oryzae [1]) [%] | Activity (Botrytis cinerea [2]) [%] | Activity [3] [%] | Activity [7] [%] | Activity (Botrytis cinerea [8]) [%] | Activity [9] [%] | Activity (Pyricularia oryzae [10]) [%] | Activity (Botrytis cinerea [11]) [%] | Activity (Podosphaera fuliginea [12]) [%] | Activity [19] [%] | Activity [23] [%] | Activity (Podosphaera fuliginea [25]) [%] | also measured
CNC(=O)/C(=N/OC)c1ccccc1COc1nc(OC)ccc1C(F)(F)F | 90 | 90 | 90 | 90 | <90 | 90 | 90 | – | – | – | – | – | Activity (Podosphaera fuliginea [4]): 90%; Activity [5]: 90%; Activity (Podosphaera fuliginea [6]): 90%
CNC(=O)/C(=N/OC)c1ccccc1COc1nc(OC(C)C)ccc1C(F)(F)F | – | – | <90 | – | <90 | 90 | – | 90 | 90 | – | – | – | Activity (Podosphaera fuliginea [13]): 90%; Activity [14]: 90%; Activity [15]: 90%; Activity (Pyricularia oryzae [16]): 90%; Activity (Pyricularia oryzae [17]): 90%
CNC(=O)/C(=N/OC)c1ccccc1COc1ccc(C(F)(F)F)c(OC)n1 | 90 | – | – | – | 90 | – | 90 | – | – | 90 | – | – | Activity [18]: 90%; Activity [20]: 90%; Activity (Podosphaera fuliginea [4]): 90%; Activity (Podosphaera fuliginea [6]): 90%; Activity (Botrytis cinerea [21]): 90%; Activity [22]: 90%
CNC(=O)/C(=N/OC)c1ccccc1COc1ccc(C(F)(F)F)c(NC)n1 | <90 | – | 90 | 90 | 90 | 90 | <90 | 90 | 90 | – | – | – | Activity (Podosphaera fuliginea [13]): 90%
CNC(=O)/C(=N/OC)c1ccccc1COc1nc(Cl)c(C(F)(F)F)cc1C(F)(F)F | 90 | 90 | – | – | 90 | – | <90 | – | 90 | – | <90 | – | Activity [18]: 90%; Activity [24]: 90%; Activity (Podosphaera fuliginea [4]): 90%; Activity [22]: 90%
CNC(=O)/C(=N/OC)c1ccccc1COc1nc(Cl)c(Cl)c(C(F)(F)F)c1Cl | <90 | – | – | <90 | <90 | – | – | – | – | <90 | 90 | 90 | Activity (Podosphaera fuliginea [26]): 90%
CNC(=O)/C(=N/OC)c1ccccc1COc1cccnc1Cl | <90 | 90 | – | <90 | – | – | – | – | – | <90 | 90 | – | Activity (Botrytis cinerea [27]): 90%; Activity (Podosphaera fuliginea [28]): 90%; Activity (Podosphaera fuliginea [29]): 90%; Activity (Botrytis cinerea [21]): 90%
CNC(=O)/C(=N/OC)c1ccccc1COc1cc(C(F)(F)F)nc(C(F)(F)F)c1 | <90 | – | <90 | <90 | – | – | – | <90 | – | <90 | 90 | <90 | Activity (Podosphaera fuliginea [26]): <90%
CNC(=O)/C(=N\OC)c1ccccc1COc1ccccn1 | <90 | – | – | <90 | – | – | – | <90 | – | 90 | <90 | <90 | Activity (Podosphaera fuliginea [26]): <90%
CNC(=O)/C(=N\OC)c1ccccc1COc1cccc(C(F)(F)F)n1 | – | – | 90 | – | <90 | 90 | – | 90 | – | – | – | 90 | Activity (Podosphaera fuliginea [28]): 90%; Activity [5]: 90%; Activity [14]: 90%; Activity (Pyricularia oryzae [16]): 90%; Activity (Pyricularia oryzae [17]): 90%
CNC(=O)/C(=N/OC)c1ccccc1COc1ncccc1Cl | – | 90 | – | – | – | 90 | – | – | 90 | – | – | – | Activity (Podosphaera fuliginea [13]): 90%; Activity [20]: 90%; Activity (Pyricularia oryzae [30]): 90%; Activity [15]: 90%; Activity [22]: 90%; Activity (Pyricularia oryzae [16]): 90%; Activity (Botrytis cinerea [31]): 90%
